{"source": "patent US20260217646A1", "about": "“SPERMINE DERIVATIVE AND THERAPEUTIC USE THEREOF FOR DISEASES” (Institute of Basic Medical Sciences, Chinese Academy of …, priority 2022, published 2026)", "key": {"[1]": {"system": "NFAT", "test": "Jurkat-Lucia NFAT reporter gene assay", "format": "cell-based, human", "settings": "Jurkat-Lucia NFAT cells; 10 μM SD1 pretreatment 3 hours; PMA 50 ng/ml and ionomycin 300 ng/ml for 24 hours (FIG. 4B)", "protocol": "Jurkat-Lucia NFAT reporter cell line was purchased from invivogen and cultured in RPMI1640 medium containing 10% FBS. The cells were pretreated with 10 μM SD1 for 3 hours. For the control group cells (at a dose of 0), an equal volume of DMSO was added to the medium. Subsequently, PMA (50 ng/ml) and ionomycin (300 ng/ml) were used to stimulate for 24 hours. The cell culture supernatant was obtained. Meanwhile, the luciferase substrate powder was dissolved in 25 ml of deionized water under dark conditions, aliquoted and stored at −80° C. for the preparation of the luciferase substrate. 20 μl of the culture supernatant was transferred to a Luciferase specific 96-well ELISA plate, and detected using Thermo VARIOSKAN FLASH microplate-reader (FIG. 4B)."}, "[2]": {"system": "JAK-STAT signaling pathway (IL-2 mediated)", "test": "Western blot of signaling pathway activation in mouse spleen cells stimulated with IL-2", "format": "cell-based", "settings": "10 μM SD1 pretreatment 3 hours, IL-2 10 ng/ml for different time periods, Western blot (FIG. 2B)", "protocol": "Mouse spleen single cells were isolated from spleens of the male mice 6-8 weeks old, and the cells freshly obtained were cultured in RPMI1640 medium containing 10% FBS, non-essential amino acids, and β-mercaptoethanol. The cells were pretreated with 10 μM SD1 for 3 hours. For the control group cells (at a dose of 0), an equal volume of DMSO was added to the medium. Subsequently, the cells were stimulated with 10 ng/ml recombinant mouse interleukin-2 (IL-2) for different time periods. The cells were collected, total cellular proteins were extracted, and the activation of the type I interferon signaling pathway was detected using Western blot (FIG. 2B)."}, "[3]": {"system": "ISG genes in peripheral blood cells of SLE model mice", "test": "ISG expression in peripheral blood cells of pristane-induced SLE model mice", "format": "in vivo, mouse", "settings": "C57 female mice; SD1 10 mg/kg intraperitoneal once a day for 5 days before pristane; blood on days 4 and 6 (FIG. 3A to 3C)", "excerpt": "Lupus-like symptoms similar to those in human patients were induced in mice by the hydrocarbon compound pristane (also referred as norphytane, 2,6,10,14-tetramethylpentadecane) (Zhuang et al., Animal Models of Interferon Signature Positive Lupus. Front Immunol. 2015. 6: p. 291; Nacionales, D. C et al. (2006). Type I interferon production by tertiary lymphoid tissue developing in response to 2,6,10,14-tetramethyl-pentadecane (pristane). The American journal of pathology 168, 1227-1240; Reeves, W. H et al. (2009). Induction of autoimmunity by pristane and other naturally occurring hydrocarbons. Trends Immunol. 30, 455-464). […] It is a recognized model that is able to simulate the overexpression of type I interferon in SLE patients, which can aid in elucidating the pathogenesis of SLE and finding therapeutic targets.\nFirstly, C57 female mice were pretreated by intraperitoneal injection of PBS and SD1 (10 mg/kg, once a day, for 5 consecutive days). Subsequently, SLE mice were induced by intraperitoneal injection of pristane (500 μl/mouse). On days 4 and 6 after the injection of pristane, blood was collected from the eye-fundus vascular plexus, and total RNA was obtained from the peripheral blood by using Trizol to detect the effect of spermine on the early type I interferon effect of pristane-induced mice."}, "[4]": {"system": "Human T-lymphocytic leukemia Jurkat cells (IL-2 secretion)", "test": "IL-2 ELISA in PMA/ionomycin-activated Jurkat cells", "format": "cell-based", "settings": "10 μM SD1 pretreatment 3 hours; PMA 50 ng/ml and ionomycin for 24 hours; ELISA (FIG. 4A)", "protocol": "Human T-lymphocytic leukemia Jurkat cells were cultured in RPMI1640 medium containing 10% FBS. The cells were pretreated with SD1 at a dose of 10 μM for 3 hours. For the control group cells (at a dose of 0), an equal volume of DMSO was added to the medium. Subsequently, the cells were continued to be stimulated with phorbol ester (PMA, 50 ng/ml) and ionomycin ([…]) for 24 hours. The cell culture supernatant was collected, and the level of IL-2 was detected using enzyme linked immunosorbent assay (ELISA) (FIG. 4A)."}, "[5]": {"system": "interferon-stimulated genes (ISGs) Ifit1 and Mx1", "test": "qPCR of interferon-stimulated gene mRNAs in mouse primary peritoneal macrophages after mIFN-β stimulation", "format": "cell-based", "settings": "10 μM SD1 pretreatment 3 hours, mIFN-β 500 μg/ml for 3 hours, qPCR (FIG. 1B)", "protocol": "2 ml of 3% mercaptoacetate (dissolved in double distilled water at a ratio in % by m/v, and then subjected to high-pressure sterilization treatment) was injected into C57BL/6 mice (6-8 weeks old, male) intraperitoneally. After 3 days, mouse primary peritoneal macrophages (PMs) were isolated from the C57BL/6 mice and cultured in endotoxin-free high-glucose DMEM medium containing 10% FBS.\nThe next day, the medium was replaced by fresh complete medium, and the cells were pretreated with 10 μM SD1 for 3 hours. For the control group cells (at a dose of 0), an equal volume of DMSO was added to the medium. Afterwards, the cells were stimulated with mIFN-β (at a dose of 500 μg/ml) for 3 hours, and RNAs were subsequently extracted for reverse transcription. The contents of mRNAs (including Ifit1 and Mx1) of interferon-stimulated genes (ISGs) were detected and analyzed by fluorescence quantitative PCR (qPCR) method using commercial primers and conditions recommended by manufacturers (FIG. 1B)."}, "[6]": {"system": "ISG promoter in RAW264.7 cells", "test": "ISG promoter-reporter (luciferase) assay in RAW264.7 cells under mIFN-β stimulation", "format": "cell-based, mouse", "settings": "10 μM SD1 pretreatment 3 hours; mIFN-β 1 ng/ml for 7 hours; luciferase in supernatant (FIG. 1A)", "protocol": "The RAW264.7 cell line with ISG promoter-reporter gene was purchased from Invivogen and cultured in DMEM containing 10% fetal bovine serum (FBS). The cells were pretreated with 10 μM SD1 for 3 hours. A concentrated solution of the above-mentioned SD1 was freshly formulated in DMSO at a concentration of 20 mM before each use, and subsequently diluted as needed. Afterwards, the cells were stimulated with recombinant mouse interferon-beta (mIFN-β) at a dose of 1 ng/ml for 7 hours, and the cell culture supernatant was obtained. Meanwhile, the luciferase substrate powder was dissolved in 25 ml of deionized water under dark conditions, aliquoted, and stored at −80° C. for preparation of the luciferase substrate. 20 μl of the culture supernatant was transferred to a Luciferase specific 96-well ELISA plate, and detected using Thermo VARIOSKAN FLASH microplate-reader (FIG. 1A)."}, "[7]": {"system": "JAK-STAT signaling pathway (IFN-β mediated)", "test": "Western blot of type I interferon signaling pathway activation in mouse primary peritoneal macrophages stimulated with mIFN-β", "format": "cell-based", "settings": "10 μM SD1 pretreatment 3 hours, mIFN-β 500 μg/ml for different time periods, Western blot (FIG. 2A)", "protocol": "PMs were obtained using the method as described in Example 2 and cultured in endotoxin-free high-glucose DMEM medium containing 10% FBS. The cells were pretreated with 10 μM SD1 for 3 hours. For the control group cells (at a dose of 0), an equal volume of DMSO was added to the medium. Afterwards, the cells were stimulated with mIFN-β (at a dose of 500 μg/ml) for different time periods. Subsequently, total cellular proteins were extracted, and the activation of the type I interferon signaling pathway was detected using Western blot (FIG. 2A)."}}}
{"smiles": "CC(C(=O)NCCCNCCCCNCCCNC(=O)C(C)(c1ccccc1)c1ccccc1)(c1ccccc1)c1ccccc1", "note": "[SD1]", "values": [{"measurement": "transcriptional activity of NFAT (reporter gene activity)", "setting": "[1]", "result": "effectively inhibits"}, {"measurement": "activation of the JAK-STAT signaling pathway mediated by IL-2 (levels of p-JAK1, p-TYK2, p-STAT1/2)", "setting": "[2]", "result": "effectively inhibit"}, {"measurement": "ISG expression (Ifit1, Isg15, Rsad2) in peripheral blood cells of SLE model mice", "setting": "[3]", "result": "inhibit"}, {"measurement": "IL-2 secretion level of activated Jurkat cells", "setting": "[4]", "result": "effectively inhibit"}, {"measurement": "expression of Ifit1 mRNA downstream of type I interferon", "setting": "[5]", "result": "reduce"}, {"measurement": "expression of Mx1 mRNA downstream of type I interferon", "setting": "[5]", "result": "reduce"}, {"measurement": "activity of ISG promoter in RAW264.7 cells", "setting": "[6]", "result": "effectively inhibit"}, {"measurement": "activation of the JAK-STAT signaling pathway mediated by IFN-β (levels of p-JAK1, p-TYK2, p-STAT1/2)", "setting": "[7]", "result": "effectively inhibit"}]}
